# Patent US20090186853A1, “COMPOSITIONS COMPRISING N-PROPANOYL DERIVATIVES OF AMINO ACIDS, AMINOCARBOHYDRATES AND DERIVATIVES THEREOF” (priority 2005, published 2009)
# Key:
# [1] = test system: itchy lesion due to atopic eczema; test: Topical treatment of itch from atopic eczema in a human subject; assay type: in vivo; conditions: 5% cream
# Method: For subjective disorders such as pain, itch, or the like, the therapeutic effects were evaluated or judged by the subjects or patients. For example, the subjects evaluated whether the pain or itch had disappeared within hours or days. For other detectable symptoms or syndromes, the therapeutic effects or improvements were evaluated or judged by medical professionals. N-Propanoyl-D-glucosamine 5 g was dissolved in water 15 ml and propylene glycol 5 ml, and the solution thus obtained was mixed uniformly with hydrophilic ointment or oil-in-water emulsion 75 g. The cream thus formulated had pH 4.7 and contained 5% N-propanoyl-D-glucosamine. A subject, having an itchy lesion on their right foot due to atopic eczema, topically applied the above cream to the lesion. […] A human subject having itchy skin from atopic eczema topically applied 5% N-propanoyl-glucosamine cream to the lesion.
# [2] = test system: fine wrinkles (crow's feet); test: Topical treatment of fine wrinkles (crow's feet) near the eyes; assay type: in vivo, human; conditions: 5% cream of Example 7, topical twice daily, five weeks, person
# Method: For subjective disorders such as pain, itch, or the like, the therapeutic effects were evaluated or judged by the subjects or patients. For example, the subjects evaluated whether the pain or itch had disappeared within hours or days. For other detectable symptoms or syndromes, the therapeutic effects or improvements were evaluated or judged by medical professionals. A subject, applied topically twice daily 5% N-propanoyl-D-glucosamine cream as formulated in Example 7 to fine wrinkles (crow's feet) near the eyes for five weeks.
# [3] = test system: forearm skin (aging / photoaging skin); test: Forearm skin thickness measured by micrometer calipers after topical application; assay type: in vivo, human; conditions: 10% solution twice daily; for appearance of treated forearm skin compared with untreated forearm: at end of treatment (6 to 9 weeks)
# Method: Skin thickness was measured by micrometer calipers to study skin changes associated with aging as follows: The skin was grasped with a 2×6 cm metal hinge, the internal faces of that were coated with emery cloth to prevent slippage, and manually squeezed to threshold subject discomfort. Combined thickness of two whole-skin layers including thickness of the two hinge leaves was measured with micrometer calipers. Thickness of the two hinge leaves was subtracted to determine the actual thickness of two whole-skin layers. Triplicate measurements on treated sites were done and an average number was used for calculation of the skin thickness. N-Propanoyl-D-glucosamine 10 g was dissolved in 90 ml solution prepared from water 40 parts, ethanol 40 parts and propylene glycol 20 parts by volume. The formulation thus prepared had pH 6.0 and contained 10% N-propanoyl-D-glucosamine solution.
structure (smiles),measurement,setting,value
"CCC(=O)N[C@H]1C(O)O[C@H](CO)[C@@H](O)[C@@H]1O (stereo partly drawn) [N-propanoyl-D-glucosamine, N-Propanoyl-D-glucosamine]",time skin remained free of itch,[1]; single topical application to atopic eczema lesion,12 h
same,itch after topical application,"[1]; topical to atopic eczema lesion, a few minutes after application",the itch disappeared completely
same,change of wrinkles,[2],wrinkles improved significantly
same,appearance of treated forearm skin compared with untreated forearm,[3],"firmer, smooth, plump and minimally wrinkled when lifted"
same,appearance of treated forearm skin compared with untreated forearm,[3]; listed as N-propanoyl-glucosamine,"firmer, smooth, plump, minimally wrinkled when lifted"
same,increase in skin thickness,"[3]; left forearm, person, after 4 weeks",8%
same,increase in skin thickness,"[3]; left forearm, person, after 5 weeks",19%
same,increase in skin thickness,"[3]; left forearm, person, after 6 weeks",23%
same,increase in skin thickness,"[3]; left forearm, person, after 8 weeks",33%
same,increase in skin thickness,"[3]; left forearm, person, after 9 weeks",28%
same,increase in skin thickness,"[3]; left forearm, subject with photoaging skin, 8 weeks",33%
same,increase in skin thickness,"[3]; right forearm, person, after 4 weeks",13%
same,increase in skin thickness,"[3]; right forearm, person, after 6 weeks",27%
